Key:
[1] = Storage stability of EC20 drug substance and EC20 kits; assay type: physicochemical; conditions: −20° C. in amber glass bottles with butyl rubber stoppers
Procedure: EC20 kits were used for preparation of the ^99mTc-EC20 radioactive drug substance. Each kit contained a sterile, non-pyrogenic lyophilized mixture of 0.1 mg EC20, 80 mg sodium α-D-glucoheptonate, […] dihydrate, and sufficient sodium hydroxide or hydrochloric acid to adjust the pH to 6.8±0.2 prior to lyophilization. The lyophilized powder was sealed in a 5 mL vial under an argon atmosphere. The kits were then stored frozen at −20° C. until use or expiration (current shelf life is >2 years). The tin (II) chloride component is present to reduce the added ^99mTc-pertechnetate, while the sodium α-D-glucoheptonate component is present to stabilize the reduced ^99mTc prior to its final chelation to the EC20 compound.
EC20 Drug Substance is stored at −20° C. in amber glass bottles with butyl rubber stoppers.

folate receptors [2] = assay: 99mTc-EC20 SPECT uptake in target lesions (EC-FV-02); assay type: in vivo, human
Procedure: EC20 Patient Scanning Procedure. Following completion of screening procedures and confirmation of eligibility, all subjects received one intravenous injection of 0.5 mg of folic acid followed within 1-3 minutes by a 1-2 mL injection of 0.1 mg of EC20 labeled with 20-25 mCi of technetium-99m. Patients then underwent SPECT imaging (mid-thigh to head, posterior and anterior images) 1-2 hours following injection of EC20. Target lesions were selected by the radiologist according to RECIST (v1.0) criteria. Subsequently, nuclear medicine physicians assessed EC20 uptake for each target lesion visually, and classified the uptake as “positive” (marked/mild uptake) or “negative” (no uptake).
EC20 Lesion Scoring Procedure.
Forty-five protocol-eligible subjects with a total of 216 RECIST-defined target tumors (ie, “lesions”) were included in this retrospective analysis (table below). One-hundred and forty-five (145/216; 67%) of the lesions were considered EC20 “evaluable.” Of these, 111 (77%) had EC20 “positive” uptake.

folate receptors [3] = assay: EC20 scan of ovarian cancer patients at the interim analysis of Example 25; assay type: in vivo, human; conditions: at the time of the interim analysis of Example 25
Excerpt: Folate-receptor status in the patient is positive if one or more tumors in the patient have folate receptors capable of binding EC20 or if all tumors in the patient are capable of binding EC20. In one illustrative example, the folate-radioactive imaging agent conjugate is ^99mTc-EC20. At the time of the interim analysis described in Example 25, below, 91.3% of all ovarian cancer patients scanned with EC20 had been “positive” (indicated by having at least one tumor lesion/area that binds EC20) versus 8.7% of patients that were fully EC20 “negative”.
In this visual assessment embodiment (visual detection), lesions are evaluated visually to determine if the patient has a threshold level of functionally active folate receptors indicative of a clinical benefit to the patient. In one aspect, lesions (i.e., tumors) for analysis in each patient are selected by a radiologist according to RECIST (v1.0) criteria. Subsequently, a nuclear medicine physician (i.e. reader) assesses the uptake of the EC20 for each evaluable target lesion visually, and classifies the uptake as “EC20 positive” (marked uptake/mild uptake) or “EC20 negative” (no uptake). In one illustrative example the folate-radioactive imaging agent conjugate is ^99mTc-EC20.

[4] = of 145 evaluable lesions, visual SPECT assessment, 45 subjects

Nc1nc2ncc(CNc3ccc(C(=O)N[C@H](CCC(=O)NC[C@H](N)C(=O)N[C@@H](CC(=O)O)C(=O)N[C@@H](CS)C(=O)O)C(=O)O)cc3)nc2c(=O)[nH]1 [EC20 Drug Substance, pteroyl-γ-D-glutamyl-β-L-2,3-diaminopropionyl-L-aspartyl-L-cysteine]
time stable on storage [1]: more than 24 months

Nc1nc2ncc(CNc3ccc(C(=O)N[C@H](CCC(=O)NC[C@@H]4[NH][99Tc]56(=[O])[S]C[C@@H](C(=O)O)[N]5C(=O)[C@H](CC(=O)O)[N]6C4=O)C(=O)O)cc3)nc2c(=O)[nH]1 [EC20]
subjects with EC20 uptake observed visually in at least 1 target lesion (folate receptors [2]; 45 subjects, EC-FV-02): Eighty-seven percent
Negative (EC20−(neg)) lesions (folate receptors [2]; [4]): 34 (23%) N (%)
Positive (EC20+) lesions (folate receptors [2]; [4]): 111 (77%) N (%)
uptake in liver, spleen, bladder, and kidney (folate receptors [2]; organs whose target lesions were considered non-evaluable): inherently high uptake
ovarian cancer patients scanned "positive" (at least one tumor lesion/area that binds EC20) (folate receptors [3]): 91.3%
patients fully EC20 "negative" (folate receptors [3]): 8.7%

— patent US20140140925A1, “FOLATE-TARGETED DIAGNOSTICS AND TREATMENT” (priority 2009, published 2014)
